Reference: US10814006B2, “Fluorescent prodrugs” (UNIVERSITY OF IOWA RESEARCH FOUNDATION, priority 2015, dated 2020)
“Also recorded” adds a separate entry of the source. Like-named read-outs stand apart in the source and are kept apart here.

What was measured:
K562 cells [1] = assay: Proliferation assay, K562 cells (CellQuantiBlue); type: cell-based; settings: 72 hours; for IC50: K562 cells, QB assay
Experimental: (§1) K562 cells were cultured in fresh K562 media (RPMI-1640, 10% heat-inactivated Fetalclone III, 1× penicillin/streptomycin). Daudi and RPMI-8226 cells were cultured in fresh Daudi/RPMI media (RPMI-1640, 10% heat-inactivated FBS, 1× penicillin/streptomycin). Gamma delta T cells were cultured as described previously. Briefly, cells were expanded from peripheral blood mononuclear cells in fresh T cell media (RPMI-1640, 10% heat-inactivated FBS, 1× HEPES, pyruvate, non-essential amino acids, penicillin/streptomycin, beta-mercaptoethanol) and added to 6-well plates. Cells were stimulated with test compounds for three days at concentrations indicated in the text. Cells were washed twice then cultured for another eleven days after compound removal. Human interleukin 2 (5 ng/mL) was supplemented every three days. Experiments were performed at least three times independently using at least two different blood donors.
(§2) To assess K562 proliferation, 10000 cells/well were added to 96-well plates in 100 μL K562 media in the presence of test compounds. Similarly, experiments with Daudi cells were initiated at 5000 cells/well and RPMI8226 cells initiated at 6000 cells/well. The cell concentrations were determined by prior dose response experiments to maximize proliferation rates. Cells were allowed to proliferate for 72 hours. During the last 2 hours, cells were labeled with 10 μL of CellQuantiBlue reagent and scanned with a Victor plate reader.

RPMI-8226 cells = assay: Proliferation assay, RPMI-8226 cells (CellQuantiBlue); type: cell-based; settings: 72 hours; for IC50: RPMI-8226 cells, QB assay
Experimental: as §1, §2

Daudi cells = assay: Proliferation assay, Daudi cells (CellQuantiBlue); type: cell-based; settings: 72 hours; for IC50: Daudi cells, QB assay
Experimental: as §1, §2

Jurkat cells = assay: Proliferation assay, Jurkat cells (CellQuantiBlue); type: cell-based; settings: 72 hours; for IC50: Jurkat cells, QB assay
Experimental: [Worded in the source for another cell line; this cell line is reported under the same test.] as §2

[2] = system: primary human gamma delta T cells (Vγ9Vδ2 T cells); assay: Gamma delta T cell expansion from PBMCs; type: cell-based; settings: for gamma delta T cell agonist activity: PBMCs, CD3 and gamma delta TCR surface staining; for EC50: 72 hours treatment
Experimental: as §1
Total gamma delta TCR was labeled using FITC-anti-human Pan gamma delta TCR antibody and CD3 was labeled using PE-conjugated anti-human CD3 as described.
The MOCCA prodrugs were also evaluated in a functional assay of their ability to stimulate proliferation of primary human gamma delta T cells. Dose response experiments were performed with the experimental compounds—MOCCA-Me-C-HMBP and MOCCA-POM-C-HMBP. POM-Me-C-HMBP, POM2-C-HMBP, Me-C-HMBP, C-HMBP or HMBPP were used as positive controls. Unstimulated cells were used as a negative control. Cells were treated for 72 hours with test compounds, washed, then expanded for 11 additional days prior to quantification to assess proliferation.

[3] = system: primary human gamma delta T cells (Vγ9Vδ2 T cells); settings: cited from earlier work
[4] = Plasma metabolism by loss of fluorescence (spectrophotometry); type: in vitro ADME, human
Experimental: (§3) Compounds were exposed to PBS, K562 cells in PBS, or 50% pooled human plasma in PBS. K562 cells were used at a concentration of 1 million per mL. The fluorescence was detected using a Victor X5 plate reader with excitation at 355 nm and emissions at 405. Compounds were mixed with each biological matrix to a final concentration of 10 μM on ice. A baseline reading was measured. Compounds were incubated for one hour at 37° C. and subsequent readings were taken every 15 minutes.
This assay was then adapted to a 384-well-plate format for use in a plate reader equipped with a 355/40 nm excitation filter and a 405/10 nm emission filter. As expected, the fluorescence intensity of MOCCA-Me-C-HMBP in PBS was much higher than that of the free MOCCA group in PBS (FIG. 4B). Additionally, the fluorescence of the free MOCCA group was further reduced when incubated in human plasma (FIG. 4C). […] Therefore, the esterase-mediated hydrolysis of MOCCA-Me-C-HMBP could be readily assessed by quantification of the two-step (release followed by quenching) loss of fluorescence following exposure to various biological matrices.
(§4) The prodrugs and the MOCCA protecting group were stable in PBS (FIG. 5A). […] The half-life was determined to be 7 minutes in this assay. […] In order to confirm that the loss of fluorescence of MOCCA-Me-C-HMBP was indeed due to hydrolysis of the MOCCA-phosphonate ester, the end products were extracted and analyzed by thin layer chromatography. MOCCA-Me-C-HMBP was fully hydrolyzed to yield the free MOCCA group in the presence of human plasma within 40 minutes (FIG. 5D). Loss of the prodrug occurred at the same time as the appearance of the MOCCA free acid.

[5] = Plasma metabolism by thin layer chromatography; type: in vitro ADME; settings: human plasma
Experimental: Compounds were exposed to cells, plasma, media, or PBS as indicated in the text in 100 μL volumes. Compounds were extracted from all biological mixtures using 200 μL of organic solvent containing 95% dichloromethane, 5% ethanol, and 0.25% glacial acetic acid. Extracts were separated by normal phase […] using 95% dichloromethane, 5% ethanol, and 0.25% glacial acetic acid as the mobile phase. Compounds were visualized under UV light.
as §4

K562 cells [6] = assay: Quantification of cellular uptake in K562 cells; type: cell-based; settings: K562 cells in PBS, 10 μM
Experimental: as §3
The compounds were then used to examine rates of internalization into K562 cells. […] That is, within hours, effectively all of the drug can pass through the cells.

[7] = pH dependence of fluorescence intensity; type: physicochemical; settings: aqueous solutions, pH 6 vs pH 3
From the text: The use of the MOCCA prodrugs as probes with which to determine rates of biological deprotection (FIG. 4) was examined. All three compounds were readily detected by spectrophotometry with excitation maxima of 360 nm and emission maxima of 410 nm in aqueous solutions. Importantly, the fluorescence intensity of the free MOCCA group was strongly dependent upon pH of the solvent (FIG. 4A), correlating with the expected protonation of the carboxylic acid. At pH 6 the intensity of the free MOCCA group was less than 10% of its intensity at pH 3. At the same time, the fluorescence intensity of the MOCCA prodrugs was not pH dependent. Taken together, the MOCCA prodrugs would be expected to rapidly lose fluorescence intensity during metabolism at neutral pH, as the free MOCCA group is released from the prodrug and remains in the deprotonated form.

[8] = dose response curves, read-out: EC50, gamma delta T cell proliferation
[9] = Reference: Hsiao et al., read-out: EC50 for T cell expansion

COc1ccc2cc(C(=O)OCOP(=O)(CC/C=C(\C)CO)OCOC(=O)C(C)(C)C)c(=O)oc2c1 (stereo not drawn) [MOCCA-POM (9)]
IC50 (K562 cells [1]): > 100 µM | IC50 (RPMI-8226 cells): 43 µM | IC50 (Daudi cells): 56 µM | IC50 (Jurkat cells): 53 µM | gamma delta T cell agonist activity [2]: functioned as a gamma delta T cell agonist | EC50 [2, 8]: 0.0039 µM

COP(=O)(CC/C=C(\C)CO)OCOC(=O)C(C)(C)C (stereo not drawn) [POM-Me—C-HMBP]
IC50 (K562 cells [1]): > 100 µM | IC50 (RPMI-8226 cells): > 100 µM | IC50 (Daudi cells): > 100 µM | IC50 (Jurkat cells): > 100 µM | gamma delta T cell agonist activity [2]: not statistically different from that of POM-Me-C-HMBP | EC50 [3, 9]: 0.52 µM | EC50 ([3]; published value, Hsiao et al. 2014, read-out: published EC50, gamma delta T cell proliferation): 0.5 µM

C/C(=C\CCP(=O)(OCOC(=O)C(C)(C)C)OCOC(=O)C(C)(C)C)CO [POM2-C-HMBP (7)]
IC50 (K562 cells [1]): > 100 µM | IC50 (RPMI-8226 cells): 44 µM | IC50 (Daudi cells): 58 µM | IC50 (Jurkat cells): > 100 µM | EC50 ([3]; published value, unit inferred, read-out: published EC50 value, gamma delta T cell proliferation): 0.0054 µM

COc1ccc2cc(C(=O)OCOP(=O)(CC/C=C(\C)CO)OC)c(=O)oc2c1 (stereo not drawn) [MOCCA-Me—C-HMBP (5)]
IC50 (K562 cells [1]; Homo sapiens): > 100 µM | IC50 (RPMI-8226 cells; Homo sapiens): 64 µM | IC50 (Daudi cells; Homo sapiens): > 100 µM | IC50 (Jurkat cells; Homo sapiens): > 100 µM | EC50 ([2]; Homo sapiens, T-cell, 11 additional days expansion, Reference: none, read-out: EC50 for T cell expansion): 0.018 µM | EC50 ([2]; Homo sapiens, T-cell, dose response curves, read-out: EC50, gamma delta T cell proliferation): 0.018 µM | gamma delta T cell agonist activity [2]: functioned as a gamma delta T cell agonist; also recorded: potent gamma delta T cell agonist | increase in activity of the MOCCA protected compound over Me-C-HMBP ([2]; ratio of EC50 values): 1300 fold | order of decay kinetics in plasma ([4]; 50% human plasma in PBS, spectrophotometry): 2nd order kinetics | half-life at 10 μM ([4]; 50% pooled human plasma in PBS, 50% human plasma in PBS, spectrophotometry): 7 min | relative rate of plasma metabolism ([4]; human plasma): metabolized more rapidly relative to the bulkier MOCCA-POM-C-HMBP | time to full hydrolysis to the free MOCCA group [5]: ≤ 40 min | half-life ([5]; read-out: half-life of enzymatic release): 7.8 min | cellular uptake / cellular metabolism in K562 cells (K562 cells [6]): faster than that of MOCCA-POM-C-HMBP

C/C(=C\CCP(=O)(O)O)CO [C-HMBP]
IC50 (K562 cells [1]): > 100 µM | IC50 (RPMI-8226 cells): > 100 µM | IC50 (Daudi cells): > 100 µM | IC50 (Jurkat cells): > 100 µM | EC50 [3, 9]: 4 µM

C1CN2CCN1CC2.COP(=O)(O)CC/C=C(\C)CO [Me—C-HMBP (4)]
IC50 (K562 cells [1]): > 100 µM | IC50 (RPMI-8226 cells): > 100 µM | IC50 (Daudi cells): > 100 µM | IC50 (Jurkat cells): > 100 µM | EC50 [2, 8]: 23 µM

COc1ccc2cc(C(=O)O)c(=O)oc2c1 [MOCCA (1), 7-Methoxy-2-oxo-2H-chromene-3-carboxylic acid]
cellular toxicity, K562 (K562 cells [1]; concentrations up to 100 μM): no cellular toxicity | IC50 (K562 cells [1]; Homo sapiens): > 100 µM | cellular toxicity, RPMI-8226 (RPMI-8226 cells; concentrations up to 100 μM): no cellular toxicity | IC50 (RPMI-8226 cells; Homo sapiens): > 100 µM | cellular toxicity, Daudi (Daudi cells; concentrations up to 100 μM): no cellular toxicity | IC50 (Daudi cells; Homo sapiens): > 100 µM | cellular toxicity, Jurkat (Jurkat cells; concentrations up to 100 μM): no cellular toxicity | IC50 (Jurkat cells; Homo sapiens): > 100 µM | fluorescence intensity at pH 6 relative to intensity at pH 3 [7]: less than 10%
